How the values were obtained:
AQ STING (G230A-R293Q) = target: T1, AQ STING (G230A-R293Q) (Homo sapiens, UniProt Q86WV6, G230A/H232R/R293Q); experiment: Differential Scanning Fluorimetry with AQ STING; assay type: binding; conditions: thermal shift vs STING apoprotein; 150 μM CDN; 0.1 mg/ml truncated human AQ STING; SYPRO Orange; read-out: DSF ΔTm (° C.) AQ STING
T1 construct: truncated human WT STING or AQ STING (amino acid residues 140-343); 8xHis (N, cleaved yes); SUMO (N, cleaved yes); made in house; host or cells: E. coli Rosetta-gami B (DE3)
T1 sequence (Q86WV6 140-343 G230A/H232R/R293Q): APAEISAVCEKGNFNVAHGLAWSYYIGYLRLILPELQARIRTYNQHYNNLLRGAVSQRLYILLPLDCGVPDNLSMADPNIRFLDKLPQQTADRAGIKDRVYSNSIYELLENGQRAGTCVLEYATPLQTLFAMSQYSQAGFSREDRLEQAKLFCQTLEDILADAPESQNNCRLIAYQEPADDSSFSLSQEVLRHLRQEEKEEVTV
Method: (§1) WT STING and AQ STING Proteins
(§2) Purified PCR products were cleaved with restriction enzymes BamHI (cat. #R0136S, NEB, Ipswich, USA) and NotI (cat. #R0189S, NEB, Ipswich, USA) and cloned into the pSUMO vector linearized with the identical enzymes.
(§3) The resin was poured into a chromatography column, washed with 50 ml buffer A (50 mmol·l^−1 TrisCl (pH 8.0), 800 mmol·l^−1 NaCl, 3 mmol·l^−1 β-mercaptol; 10% glycerol; 20 mmol·l^−1 imidazole) and 8-His-SUMO tagged STING proteins were eluted with 15 ml buffer A containing 300 mmol·l^−1 imidazole. […] Proteins were concentrated with Amicon® Ultra-15 10 K device (cat. #UFC901008, Merck Millipore, Billerica, USA) and flash frozen in liquid N2.
(§4) Differential Scanning Fluorimetry with WT STING and AQ STING
(§5) 20 μL solutions of the reaction mixtures were pipetted in triplicates into 96 well optical reaction plates and thermal denaturation of samples were performed on real time PCR cycler (LightCycler® 480 Instrument II—Roche, Basel, Switzerland). The first derivative of the thermal denaturation curves was performed to calculate denaturing temperatures of STING—CDN complexes and STING apoproteins. The thermal shift for each CDN was calculated by subtracting the average denaturing temperature of STING apoprotein from the average denaturing temperature of STING CDN complex.

WT STING [1] = target: T2, WT STING (Homo sapiens, UniProt Q86WV6, H232R); experiment: Digitonin assay using 293T wtSTING-FL reporter cells; assay type: cell-based; conditions: 293T wtSTING-FL cells; 30 minutes in Digitonin buffer, then 5 hours; ISRE firefly luciferase reporter; 8-point dose-response curve; read-out: Digitonin assay EC50 (μmol · l^−1) WT STING
Text: ISRE Reporter Plasmid (pGL64.27-4xISRE)
Two complementary oligonucleotides of the sequence […] […] […] […] […] The oligonucleotides were mixed in equal molar amounts, hybridized, and cleaved by restriction endonucleases HindIII (cat. #. R0104S, NEB, Ipswich, USA) and BglII (cat. #R0144S, NEB, Ipswich, USA). Ultimately, they were ligated into plasmid pGL4.27 (cat. #E6651, Promega, Madison, USA) linearized with the same enzymes. As result the sequence with four ISRE sites was placed upstream of the minimum promoter of firefly luciferase reporter gene.
After 5 minutes incubation at room temperature (RT), 250 μL of the mixture was added dropwise to the cells in one well. Cells were incubated 36 hours at 37° C. with 5% CO2, and then detached with 0.05% Trypsin and 0.22 g/L EDTA (both cat. #L0941, Biowest, Riverside, USA).
Transfected cells were seeded onto poly-D-lysine coated six well plates at density 50,000 cells per 1 cm^2 in DMEM medium with high glucose containing 10% heat inactivated FBS, 30 g/mL blasticidin (cat. #ant-bl-05, InvivoGen, San Diego, USA), 0.06 mg/ml Penicillin G and 0.1 mg/ml Streptomycin Sulfate (both cat. #. L0018, Biowest, Riverside, USA). The medium was replenished every 3-4 days until visible colonies of cells resistant to blasticidin were formed.
Blasticidin resistant cells stably expressing WT STING were further transfected with […] plasmid following the same procedure as described above. […] Homogeneous culture of stably double transfected cells was prepared by limiting dilution of cells in 96 well plates and wells with cells were selected that originated from a single cell.
The medium was removed next day and three fold serial dilutions of compounds in Digitonin buffer containing 50 mmol·l^−1 HEPES (cat. #H3375, Sigma Aldrich, Czech Republic) pH 7.0, 100 mmol·l^−1 KCl, 3 mmol·l^−1 MgCl2, 0.1 mmol·l^−1 DTT (cat. #D0632, Sigma Aldrich, Czech Republic), 85 mmol·l^−1 Sucrose (cat. #S7903, Sigma Aldrich, Czech Republic), 0.2% BSA (cat. #A2153, Sigma Aldrich, Czech Republic), 1 mmol·l^−1 ATP (cat. #A1852, Sigma Aldrich, Czech Republic), 0.1 mmol·l^−1 GTP (cat. #G8877, Sigma Aldrich, Czech Republic), and 10 μg/mL Digitonin A (cat. #D141, Sigma Aldrich, Czech Republic) were added to the cells. The buffer was removed after 30 minutes incubation at 37° C. with 5% CO2, the cells were washed once with 100 μl of cultivation medium, and 100 μl of medium was added to each well. The plates with cells were incubated for 5 hours at 37° C. with 5% CO2, 50 μl of the medium was removed and 30 μl of ONE-Glo™ Luciferase Assay System reagent (cat. #E6120, Promega, Madison, USA) was added to each well. Luminescence was read on Synergy H1 (Biotek, Winooski, USA).
Target sequence in this assay (Q86WV6 whole entry H232R): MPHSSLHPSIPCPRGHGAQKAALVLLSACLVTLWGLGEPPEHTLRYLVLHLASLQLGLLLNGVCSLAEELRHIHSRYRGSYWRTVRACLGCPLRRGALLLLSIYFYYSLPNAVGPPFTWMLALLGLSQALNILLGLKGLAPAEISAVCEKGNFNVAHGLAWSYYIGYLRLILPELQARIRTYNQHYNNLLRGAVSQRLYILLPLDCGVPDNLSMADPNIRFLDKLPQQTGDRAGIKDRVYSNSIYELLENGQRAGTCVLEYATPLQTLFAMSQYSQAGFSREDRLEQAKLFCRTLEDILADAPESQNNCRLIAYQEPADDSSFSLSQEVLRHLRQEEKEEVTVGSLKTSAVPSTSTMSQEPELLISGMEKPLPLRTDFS

WT STING [2] = target: T2, WT STING; experiment: Differential Scanning Fluorimetry with WT STING; assay type: binding; parameters: truncated human WT STING or AQ STING (amino acid residues 140-343); 8xHis (N, cleaved yes); SUMO (N, cleaved yes); made in house; host or cells: E. coli Rosetta-gami B (DE3); conditions: thermal shift vs STING apoprotein; 150 μM CDN; 0.1 mg/ml truncated human WT STING; SYPRO Orange; read-out: DSF ΔTm (° C.) WT STING
Method: as §1, §2, §3, §4, §5
Target sequence in this assay (Q86WV6 140-343 H232R): as the sequence (Q86WV6 140-343 G230A/H232R/R293Q) above, with A91G, Q154R counted along it

| SMILES | ΔTm at 150 µM (AQ STING (G230A-R293Q)) [°C] | EC50 (WT STING [1]) [nM] | ΔTm at 150 µM (WT STING [2]) [°C] |
| --- | --- | --- | --- |
| Nc1nc(N)c2ncn([C@@H]3O[C@@H]4COP(=O)(O)O[C@@H]5[C@H](O)[C@@H](OCP(=O)(O)O[C@H]4[C@H]3O)O[C@H]5n3cnc4c(=O)[nH]c(N)nc43)c2n1 [Compound 50, (1R,6R,8R,9R,10S,15R,17R,18S)-17-(2-amino-6-oxo-6,9-dihydro-1H-purin-9-yl)-8-(2,6-diamino-9H-purin-9-yl)-3,9,12,18-tetrahydroxy-2,4,7,11,14,16-hexaoxa-3λ^5,12λ^5-diphosphatricyclo[13.2.1.0^6,10]octadecane-3,12-dione] | 17.5 | 20 | 11.9 |
| CSc1ncnc2c1ncn2[C@@H]1O[C@@H]2COP(=O)(O)O[C@@H]3[C@H](O)[C@@H](OCP(=O)(O)O[C@H]2[C@H]1O)O[C@H]3n1cnc2c(=O)[nH]c(N)nc21 [Compound 51, (1R,6R,8R,9R,10S,15R,17R,18S)-17-(2-amino-6-oxo-6,9-dihydro-1H-purin-9-yl)-3,9,12,18-tetrahydroxy-8-[6-(methylsulfanyl)-9H-purin-9-yl]-2,4,7,11,14,16-hexaoxa-3λ^5,12λ^5-diphosphatricyclo[13.2.1.0^6,10]octadecane-3,12-dione] | 15.9 | 10 | 8.6 |
| C#Cc1cn([C@@H]2O[C@@H]3COP(=O)(O)O[C@@H]4[C@H](O)[C@@H](OCP(=O)(O)O[C@H]3[C@H]2O)O[C@H]4n2cnc3c(=O)[nH]c(N)nc32)c2ncnc(N)c12 [Compound 53, (1R,6R,8R,9R,10S,15R,17R,18S)-8-{4-amino-5-ethynyl-7H-pyrrolo[2,3-d]pyrimidin-7-yl}-17-(2-amino-6-oxo-6,9-dihydro-1H-purin-9-yl)-3,9,12,18-tetrahydroxy-2,4,7,11,14,16-hexaoxa-3λ^5,12λ^5-diphosphatricyclo[13.2.1.0^6,10]octadecane-3,12-dione] | 12.9 | 40 | 6.6 |
| Nc1nc2c(nnn2[C@@H]2O[C@@H]3OCP(=O)(O)O[C@H]4[C@@H](O)[C@H](n5cnc6c(N)ncnc65)O[C@@H]4COP(=O)(O)O[C@@H]2[C@@H]3O)c(=O)[nH]1 [Compound 57, (1R,6R,8R,9R,10S,15R,17R,18S)-17-{5-amino-7-oxo-3H,6H,7H-[1,2,3]triazolo[4,5-d]pyrimidin-3-yl}-8-(6-amino-9H-purin-9-yl)-3,9,12,18-tetrahydroxy-2,4,7,11,14,16-hexaoxa-3λ^5,12λ^5-diphosphatricyclo[13.2.1.0^6,10]octadecane-3,12-dione] | 22.2 | 20 | 14.8 |
| NC(=O)c1ncn([C@@H]2O[C@@H]3COP(=O)(O)O[C@@H]4[C@H](O)[C@@H](OCP(=O)(O)O[C@H]3[C@H]2O)O[C@H]4n2cnc3c(=O)[nH]c(N)nc32)c1N [Compound 58, 5-amino-1-[(1R,6R,8R,9R,10S,15R,17R,18S)-17-(2-amino-6-oxo-6,9-dihydro-1H-purin-9-yl)-3,9,12,18-tetrahydroxy-3,12-dioxo-2,4,7,11,14,16-hexaoxa-3λ^5,12λ^5-diphosphatricyclo[13.2.1.0^6,10]octadecan-8-yl]-1H-imidazole-4-carboxamide] | 11.9 | 120 | 8.3 |
| Nc1ncnc2c1ncn2[C@@H]1O[C@@H]2OCP(=O)(O)O[C@@H]3[C@H](O)[C@@H](COP(=O)(O)O[C@H]2[C@H]1O)C[C@H]3n1cnc2c(=O)[nH]cnc21 [Compound 59, (1S,6R,8R,9R,10S,15R,17R,18R)-8-(6-amino-9H-purin-9-yl)-3,9,12,18-tetrahydroxy-17-(6-oxo-6,9-dihydro-1H-purin-9-yl)-2,5,7,11,13-pentaoxa-3λ^5,12λ^5-diphosphatricyclo[13.2.1.0^6,10]octadecane-3,12-dione] | 10 | 1100 | 1.8 |

Results, then the compound that gave them:

| ΔTm at 150 µM (AQ STING (G230A-R293Q)) [°C] | EC50 (WT STING [1]) [nM] | ΔTm at 150 µM (WT STING [2]) [°C] | SMILES |
| --- | --- | --- | --- |
| 20.1 | 30 | 13.9 | Nc1nc2c(ncn2[C@@H]2O[C@@H]3OCP(=O)(O)O[C@H]4[C@H](O)[C@H](n5cnc6c(N)nc(F)nc65)O[C@@H]4COP(=O)(O)O[C@@H]2[C@@H]3O)c(=O)[nH]1 [Compound 52, (1R,6R,8R,9S,10S,15R,17R,18S)-8-(6-amino-2-fluoro-9H-purin-9-yl)-17-(2-amino-6-oxo-6,9-dihydro-1H-purin-9-yl)-3,9,12,18-tetrahydroxy-2,4,7,11,14,16-hexaoxa-3λ^5,12λ^5-diphosphatricyclo[13.2.1.0^6,10]octadecane-3,12-dione] |
| 19.9 | 12 | 13 | Nc1nc2c(ncn2[C@@H]2O[C@@H]3OCP(=O)(O)O[C@H]4[C@@H](F)[C@H](n5cnc6c(N)nc(F)nc65)O[C@@H]4COP(=O)(O)O[C@@H]2[C@@H]3O)c(=O)[nH]1 [Compound 54, (1R,6R,8R,9R,10R,15R,17R,18S)-8-(6-amino-2-fluoro-9H-purin-9-yl)-17-(2-amino-6-oxo-6,9-dihydro-1H-purin-9-yl)-9-fluoro-3,12,18-trihydroxy-2,4,7,11,14,16-hexaoxa-3λ^5,12λ^5-diphosphatricyclo[13.2.1.0^6,10]octadecane-3,12-dione] |
| 22.9 | 10 | 15.2 | Nc1nc2c(ncn2[C@@H]2O[C@@H]3OCP(=O)(O)O[C@H]4C[C@H](n5cnc6c(N)ncnc65)O[C@@H]4COP(=O)(O)O[C@@H]2[C@@H]3O)c(=O)[nH]1 [Compound 55, (1R,6R,8R,10S,15R,17R,18S)-17-(2-amino-6-oxo-6,9-dihydro-1H-purin-9-yl)-8-(6-amino-9H-purin-9-yl)-3,12,18-trihydroxy-2,4,7,11,14,16-hexaoxa-3λ^5,12λ^5-diphosphatricyclo[13.2.1.0^6,10]octadecane-3,12-dione] |
| 16.5 | 50 | 9.5 | Nc1nc2c(ncn2[C@@H]2O[C@@H]3OCP(=O)(O)OC4C[C@H](n5cnc6c(N)nc(Cl)nc65)O[C@@H]4COP(=O)(O)OC2C3O)c(=O)[nH]1 (stereo partly drawn) [Compound 56, (1R,6R,8R,105,15R,17R,185)-8-(6-amino-2-chloro-9H-purin-9-yl)-17-(2-amino-6-oxo-6,9-dihydro-1H-purin-9-yl)-3,12,18-trihydroxy-2,4,7,11,14,16-hexaoxa-3λ^5,12λ^5-diphosphatricyclo[13.2.1.0^6,10]octadecane-3,12-dione] |

From patent US11203610B2, “2′3′ cyclic dinucleotides with phosphonate bond activating the sting adaptor protein” (INSTITUTE OF ORGANIC CHEMISTRY AND BIOCHEMISTRY ASCR, V.V.I., priority 2017, dated 2021)
